For `O=S(=O)(CCCl)CCC(F)(F)C(F)(F)C(F)(F)C(F)(F)C(F)(F)C(F)(F)C(F)(F)C(F)(F)C(F)(F)C(F)(F)F`, the melting point was 147 to 148 °C. With `CCCOc1ccc(OC)c(-c2csc(N)n2)c1` the melting point was 76 °C. Work on `Oc1ccc(Cn2ccnc2)c2cccnc12` yielded a melting point of 182 °C. With `Nc1ccc(C(=O)CCc2ccc(Cl)c(Cl)c2)cc1` the melting point was 127 to 129 °C. Work on `Cn1ncc(S(N)(=O)=O)c1C1=NOCCO1` yielded a melting point of 126 to 130 °C. Compound `O=C1C2=C(CCCC2)C(=O)N1c1cc2c(cc1F)nnn2-c1ccccc1O` has a melting point of 274 to 275 °C. `COC(=O)CCC1OC(=O)N=C1c1ccccc1` (stereo not drawn) showed a melting point of 104 to 105 °C. For `Cc1cc2c(nc1OCCCCN1CCN(c3cccc(Cl)c3Cl)CC1)NC(=O)CC2`, the melting point was 138 to 139 °C. `Cn1nnc2c(N)cc3nc(O)c(O)nc3c21` gave a melting point of over 300 °C. In the case of `CC1(C)CCc2c(N3CCOCC3)nc3sc4c(NCCN5CCOCC5)ncnc4c3c21`, the melting point is reported as 100 to 101 °C. Compound `CC(C)(C)N(NC(=O)c1ccccc1)C(=O)C1CCCCC1` has a melting point of 202 to 204 °C. Compound `O=C1c2ccccc2C(=O)N1CCC=Cc1csc(-c2ccccn2)n1` has a melting point of 139 to 141 °C. `CCC(Oc1c(C)cccc1C)C(=O)OC1CC(O)C=C2C=CC(C)C(CCC3CC(O)CC(=O)O3)C21` (mixture of isomers) showed a melting point of 125 to 127 °C. For `CCCCCCCCCCCCCCCCCCNC(=O)CC[Si](OCC)(OCC)OCC`, the melting point was 50 to 52 °C. Work on `CCn1c(C)nc2cc(C#N)ccc21` yielded a melting point of 162 °C. Compound `Nc1ccc2c(S(=O)(=O)c3ccccc3)c[nH]c2c1` has a melting point of 144 to 146 °C. For `CCNc1cc(Oc2ccc(NC(=O)NC3CC3c3ccccc3)cc2)ncn1` (stereo not drawn), the melting point was 205 to 206 °C. `CCn1cc(C(=O)O)c(=O)c2cc(F)c(N3Cc4ccccc4C3)cc21` showed a melting point of over 300 °C. `O=[N+]([O-])c1ccc(C=COC=Cc2ccc([N+](=O)[O-])cc2)cc1` gave a melting point of 59 to 61 °C. With `CCCCc1nc([N+](=O)[O-])c(CO)n1Cc1ccc(-c2ccccc2C(=O)O)cc1` the melting point was 204 to 206 °C. With `O=C(O)c1cccc(C(CC(=O)c2ccc(F)cc2)CC(=O)c2ccc(F)cc2)c1` the melting point was 205 to 207 °C. Compound `CC(C)(C)OC(=O)NC12CCC1CN(Cc1ccccc1)C2` (stereo not drawn) has a melting point of 69 to 70 °C. In the case of `CN(O)C(=O)C(C)(C)Cc1ccc2c(c1)C(=O)c1ccccc1CO2`, the melting point is reported as 192 to 194 °C. Compound `CSC(=CC(=O)c1ccccc1C)SC` has a melting point of 96.2 °C. In the case of `CCOC(=O)c1sc(SC)c2c1CCC(C=O)=C2Cl`, the melting point is reported as 79 to 80 °C. In the case of `COc1ccc(/C=C/C(=O)Nc2cc3ccccc3cc2C(=O)O)cc1OC`, the melting point is reported as 212 to 213 °C. `CCOC(=O)c1cn(-c2cccc(OC3CCCC3)c2)cn1` showed a melting point of 66 to 67 °C. `COc1ccc(-c2n[nH]c(-c3cccc(C(=O)O)c3)n2)cc1` gave a melting point of 287 to 289 °C. For `N#Cc1ccccc1C(=O)c1ccccc1O`, the melting point was 100 °C. `COc1ccc(Br)c(O)c1C(=O)O` gave a melting point of 143 to 144 °C. Work on `CN(C)C=C1C[N+]([O-])=C(c2ccccc2F)c2cc(Cl)ccc2C1=O` yielded a melting point of 175 to 178 °C. In the case of `COC(=O)C(C)Oc1cccc2c1c(C(=O)C(N)=O)c(C)n2Cc1ccccc1` (stereo not drawn), the melting point is reported as 175 °C. With `COC(=O)c1ccc(OCCNC(=O)C2Cc3ccccc3N2S(=O)(=O)c2ccc(-c3ccc(F)cc3)cc2)c(F)c1` (stereo not drawn) the melting point was 82 to 87 °C. Work on `COc1ccc(-c2cc(C(=O)C(C)CN3CCCC3)on2)cc1` (stereo not drawn) yielded a melting point of 75 to 77 °C. In the case of `COc1ccccc1SC(CCc1ccc(Cl)cc1)Cn1ccnc1` (stereo not drawn), the melting point is reported as 105 to 106 °C. `O=C(c1cc2[nH]nc(-c3cc4cc(CO)ccc4[nH]3)c2s1)N1CCN(c2ccc(F)cc2)CC1` gave a melting point of 156 to 158 °C. For `COCc1ncccc1CN(CCn1ccc2oc(C)cc2c1=O)Cc1ccc2c(c1)NC(=O)C(C)(C)C(=O)N2CC1CC1`, the melting point was 189 to 191 °C. In the case of `COc1cc(CCCC2SC(=O)NC2=O)ccc1OCc1coc(/C=C/c2ccccc2)n1` (stereo not drawn), the melting point is reported as 154 to 155 °C. For `Cc1c(F)cccc1NN`, the melting point was 69 °C. Work on `CC(C)(C)c1ccc(/C=C/C(=O)Nc2cccc(OCC(=O)O)c2)cc1` yielded a melting point of 166 to 172 °C. `OCC1OC(n2cnc3c(NNC4CCSc5ccccc54)ncnc32)C(O)C1O` (stereo not drawn) gave a melting point of 105 to 107 °C. `Cc1ccc(-c2c(N(C)C(=O)OC(C)(C)C)n(CC(C)C)c(=O)c3ccc(OCc4ccccc4)cc23)cc1` gave a melting point of 164 °C. `Cn1cc2c(nc(NC(=O)Nc3ccc(CC(=O)NCCCNC(=O)OC(C)(C)C)cc3)n3nc(-c4ccco4)nc23)n1` gave a melting point of 198 to 205 °C. Work on `O=C1NC(=O)C(Cc2cc(Cl)ccc2[N+](=O)[O-])N1` (stereo not drawn) yielded a melting point of 184 to 186 °C. `CCOC(=O)c1cn(-c2ccc(F)cn2)c2nc(N3CC(C)NC(C)C3)c(F)cc2c1=O` (stereo not drawn) showed a melting point of 165 °C. Work on `CC(C)c1cccc(C(C)C)c1NC(=S)NC(C)(C)C(C)(C)C` yielded a melting point of 161 to 162 °C. For `CC(C)(C)CCNC(=O)CN1C(=O)C2(COc3cc4c(cc32)CCO4)c2ccccc21` (stereo not drawn), the melting point was 161 to 163 °C. For `CN1Cc2cccnc2N(c2cccc(C(F)(F)F)c2)C1=O`, the melting point was 122 to 124 °C.
